Test results: patent US9493466B2, “Treatment of cancer with TOR kinase inhibitors” (Signal Pharmaceuticals, LLC, priority 2011, dated 2016)

How the values were obtained:
[1] = Phase 1/2 study Part A: pharmacokinetics; format: in vivo, human
Method: During the first cycle only in Part A, each subject will be administered a single dose of Compound 1 (Day −1), followed by a 48-hour observation and PK sampling period, followed on Day 1 by daily uninterrupted dosing for 28 days (Cycle 1=30 days). In subsequent Part A cycles, subjects are treated in 28-day cycles with continuous dosing from Day 1 to 28. In Part B, subjects will receive continuous dosing for 28 days from the beginning—there is neither an initial observation period nor a 48-hour PK collection.

[2] = test system: DLBCL; test: Phase 1/2 study Part B: tumor response, DLBCL; format: in vivo, human; conditions: 11 evaluable patients
Text: (§1) In Part B, subjects may start Compound 1 at the MTD and/or a lower dose level based on safety, PK and PD data from Part A. Approximately 150 subjects will be treated and evaluated for safety and preliminary antitumor activity after every two cycles of therapy. Tumor types include non-small cell lung cancer (NSCLC), glioblastoma multiforme (GBM), hepatocellular carcinoma (HCC), gastrointestinal neuroendocrine tumor of non-pancreatic origin (NET), diffuse large B-cell lymphoma (DLBCL), multiple myeloma (MM), and hormone receptor positive breast cancer (HRPBC). Up to 20 subjects will be enrolled in each tumor type.
Subjects will be evaluated for efficacy every 2 cycles through cycle 6 and every 3 cycles thereafter. The primary efficacy variable is response. Tumor assessments, including imaging (CT, MRI and/or PET) of the chest and abdomen and other sites as appropriate, will be performed during Screening. Subjects with brain lesions will also have brain scans at Screening and during follow-up tumor assessments. After Screening, tumor assessments (for all tumors except multiple myeloma) will be performed on completion of Cycles 2, 4 and 6 (i.e., on Cycles 3, 5 and 7/Day 1±7 days) and then every 3 months thereafter (e.g., Cycle 10 and 13/Day 1±7 days). Tumor assessment (for multiple myeloma and only NHL/DLBCL with known or suspected marrow involvement) (bone marrow aspiration and biopsy, with PD biomarker analysis, cytogenetic analysis if abnormally present at Screening) will be performed on completion of Cycles 4, 8, 12 and 16 only (i.e., on Cycles 5, 9, 13 and 17/Day 1±7 days). Cytogenetics need not be repeated if normal at Screening. […] Subjects will be evaluated for tumor response on completion of Cycle 2, 4, 6, and so on. […]
(§2) For Part B, efficacy variables to be analyzed include tumor response at the end of treatment, the proportion of subject alive and progression-free, and duration of response. […]

[3] = test system: SNU-182; test: Growth inhibition assay for HCC lines; format: cell-based; conditions: SNU-182, 96 hours, RPMI 1640 + 10% FBS
Method: (§3) Growth Inhibition Assay for HCC and NHL Lines. The seeding density for each cell line was optimized to ensure assay linearity in 384-well plates.
(§4) Compound 1 was dissolved in dimethyl sulfoxide (DMSO) to prepare a 10 mM stock solution. A serial titration was performed to produce a working concentration range of […] to 10 mM. Aliquots to produce final concentrations of 1.5 nM to 10 μM were spotted via an acoustic dispenser (EDC ATS-100) into an empty 384-well plate. Compound 1 was spotted in a 10-point serial dilution fashion (3-fold dilution) in duplicate within the plate. The DMSO concentration was kept constant for a final assay concentration of 0.1% DMSO. Plates were replicated for use with different cell lines and testing periods. After compound plate replication, all plates were sealed (Agilent ThermoLoc) and stored at −20° C. for up to 1 month. […] When ready for testing, plates were removed from the freezer, thawed, and unsealed just prior to the addition of the test cells. Prior to testing, cells were grown and expanded in culture flasks to provide sufficient amounts of starting material. Cells were then diluted to the appropriate densities and added directly to the compound-spotted 384-well plates. Cells were allowed to grow for 96 hours at 37° C./5% CO2. At the time when compound was added (t0), initial cell number was assessed via a viability assay (Cell Titer-Glo) by quantifying the level of luminescence generated by ATP present in viable cells. After 96 hours, cell viability of compound-treated cells was assessed via Cell Titer-Glo and luminescence measurement. Cell lines were assayed for growth inhibition by Compound 1 in at least 3 independent tests. A control cell line (the lung tumor cell line, A549) was included in each of the assays. The compound response against this control cell line was monitored closely to enable comparison of the data generated through the assay period. All data were normalized and presented as a percentage of the DMSO-treated cells. Results were then expressed as a GI50 value. The GI50 value corrects for the cell count at time zero. In addition, the IC50 value of Compound 1 for each cell line was calculated.

[4] = test system: SNU-449; test: Growth inhibition assay for HCC lines; format: cell-based; conditions: SNU-449, 96 hours, RPMI 1640 + 10% FBS
Method: as §3, §4

[5] = test system: SNU-398; test: Growth inhibition assay for HCC lines; format: cell-based; conditions: SNU-398, 96 hours, RPMI 1640 + 10% FBS
Method: as §3, §4

[6] = test system: GBM; test: Phase 1/2 study Part B: tumor response, GBM; format: in vivo, human; conditions: 10 evaluable GBM patients
Text: as §1
Subjects will be evaluated for efficacy every 2 cycles through cycle 6 and every 3 cycles thereafter. The primary efficacy variable is response. Tumor assessments, including imaging (CT, MRI and/or PET) of the chest and abdomen and other sites as appropriate, will be performed during Screening. Subjects with brain lesions will also have brain scans at Screening and during follow-up tumor assessments. […] Subjects will be evaluated for tumor response on completion of Cycle 2, 4, 6, and so on. […]
as §2

SMILES: CO[C@H]1CC[C@H](N2C(=O)CNc3ncc(-c4ccc(C(C)(C)O)nc4)nc32)CC1 [Compound 1, 7-(6-(2-hydroxypropan-2-yl)pyridin-3-yl)-1-((1r,4r)-4-methoxycyclohexyl)-3,4-dihydropyrazino-[2,3-b]pyrazin-2(1H)-one]
- mean steady state Cmax ([1]; 45 mg, day 15): 485 ng/mL
- AUC0-24 ([1]; 45 mg, mean steady state): 2371 ng^xhr/mL
- drug accumulation ([1]; after 15 days of dosing): only minimal drug accumulation
- exposures versus levels estimated to provide >50% inhibition of TORC1 (pS6) and TORC2 (pAKT) for at least 8 hours ([1]; dose levels of 30 mg and higher, estimate from preclinical xenograft models): exceeded
- drug exposure versus dose ([1]; high intersubject variability): Dose proportional
- best target lesions responses (reduction) [2]: up to 75%
- patients meeting Partial Response (RECIST 1.1) [2]: 2 patients
- patients meeting at least Stable Disease (RECIST 1.1) [2]: 1 patient
- GI50 [3]: 80 ± 30 nM
- IC50 [3]: 260 ± 100 nM
- GI50 [4]: 370 ± 70 nM
- IC50 [4]: 480 ± 110 nM
- GI50 [5]: 280 ± 60 nM
- IC50 [5]: 290 ± 50 nM
- clinical activity, defined as 6-month Progression-Free Survival [6]: No signs of clinical activity
